Source: PubChem BioAssay (NCI)
“And” between values parts separate entries of the source, which are not always exact repeats. Equal entries are not always repeated.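 Dose response: 5 concentrations. Exposure: 48 h. Format: 96-well plates. Endpoint: linear interpolation; highest concentration if not reached. Abbreviation: GI50, concentration required for 50% inhibition of growth. TGI: total growth inhibition.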

Columns and labels:
Assay in all cases: NCI anticancer screen, dose series, 48 h
SF-295 CNS = tested on: SF-295 CNS
UACC-62 melanoma = tested on: UACC-62 melanoma
HOP-62 NSCLC = tested on: HOP-62 NSCLC
A549 NSCLC = tested on: A549 NSCLC
MCF7 breast = tested on: MCF7 breast
NCI-H226 lung = tested on: NCI-H226 lung
SK-MEL-5 melanoma = tested on: SK-MEL-5 melanoma
DU-145 prostate = tested on: DU-145 prostate
NCI-H23 lung = tested on: NCI-H23 lung
A498 renal = tested on: A498 renal
SN12C renal = tested on: SN12C renal
SNB-19 CNS = tested on: SNB-19 CNS
EKVX NSCLC = tested on: EKVX NSCLC
HCC-2998 colon = tested on: HCC-2998 colon
HT29 colon = tested on: HT29 colon
RPMI-8226 leukemia = tested on: RPMI-8226 leukemia
T-47D breast = tested on: T-47D breast
CAKI-1 renal = tested on: CAKI-1 renal
HS 578T breast = tested on: HS 578T breast
UO-31 renal = tested on: UO-31 renal
SK-OV-3 ovarian = tested on: SK-OV-3 ovarian
OVCAR-4 ovarian = tested on: OVCAR-4 ovarian
TK-10 renal = tested on: TK-10 renal
M14 melanoma = tested on: M14 melanoma
MALME-3M melanoma = tested on: MALME-3M melanoma
BT-549 breast = tested on: BT-549 breast
PC-3 prostate = tested on: PC-3 prostate
NCI-H460 lung = tested on: NCI-H460 lung
SR leukemia = tested on: SR leukemia

## C[C@]12CC[C@H](OC3OC(O)C(O)C(O)C3O)C=C1CCC1C2CC[C@]2(C)[C@@H](c3ccc(=O)oc3)CC[C@]12O (stereo partly drawn)
SF-295 CNS
  GI50: 3.16 nM and 5 nM
  TGI: 80.9 nM and 13 nM
UACC-62 melanoma
  GI50: 6.26 nM and 7.83 nM
  TGI: 21.4 nM and 17.6 nM
HOP-62 NSCLC
  GI50: 1.78 nM
  TGI: 3.28 nM
A549 NSCLC
  GI50: 1.78 nM
  TGI: 3.58 nM
MCF7 breast
  GI50: 3.42 nM and 5 nM
  TGI: 65.4 nM and 14.4 nM
NCI-H226 lung
  GI50: 2.62 nM and 5.27 nM
  TGI: 8.62 nM and 11.3 nM
SK-MEL-5 melanoma
  GI50: 1.96 nM and 5 nM
  TGI: 4.28 nM and 6.32 nM
DU-145 prostate
  GI50: 2.77 nM
  TGI: 6.98 nM
NCI-H23 lung
  GI50: 2.93 nM
  TGI: 11.4 nM
A498 renal
  GI50: 3.45 nM and 5 nM
  TGI: 48.3 nM and 23.7 nM
SN12C renal
  GI50: 3.04 nM and 5 nM
  TGI: 17 nM and 9.65 nM
SNB-19 CNS
  GI50: 6.88 nM and 5 nM
  TGI: 50.6 nM and 28.7 nM
EKVX NSCLC
  GI50: 2.86 nM and 5 nM
  TGI: 9.07 nM and 5.58 nM
HCC-2998 colon
  GI50: 4.67 nM and 5 nM
  TGI: 25.2 nM and 16.5 nM
HT29 colon
  GI50: 4.52 nM and 5 nM
  TGI: 17.6 nM and 9.16 nM
RPMI-8226 leukemia
  GI50: 4.39 nM
  TGI: 74.8 nM
T-47D breast
  GI50: 4.04 nM and 5 nM
  TGI: 19.8 nM and 16.6 nM
CAKI-1 renal
  GI50: 3.57 nM and 5 nM
  TGI: 24.8 nM and 17.3 nM
HS 578T breast
  GI50: 2.24 nM
  TGI: 50.6 nM
UO-31 renal
  GI50: 4.64 nM and 5 nM
  TGI: 16.8 nM and 8.11 nM
SK-OV-3 ovarian
  GI50: 3.65 nM and 5 nM
  TGI: 12 nM and 6.59 nM
OVCAR-4 ovarian
  GI50: 2.98 nM
  TGI: 16.7 nM
TK-10 renal
  GI50: 5.08 nM
  TGI: 42.2 nM
M14 melanoma
  GI50: 14.8 nM and 9.18 nM
  TGI: 29.9 nM and 19.9 nM
MALME-3M melanoma
  GI50: 3.28 nM and 5 nM
  TGI: 9.89 nM and 11.8 nM
BT-549 breast
  GI50: 3.59 nM and 5 nM
  TGI: 11.8 nM and 6.59 nM
PC-3 prostate
  GI50: 3.84 nM
  TGI: 22.1 nM
NCI-H460 lung
  GI50: 2.42 nM and 5 nM
  TGI: 6.33 nM and 5.12 nM
SR leukemia
  GI50: 2.21 nM
  TGI: 6.19 nM
